Counter-ions that a name gives are not always drawn.
Assays:
[1] = system: phosphorylation of Tau at S262 in primary cell culture of rat cortical neurons induced by Okadaic acid; test: pTau(S262) Cell Biochemical and Functional Assay; type: cell-based; conditions: Cortical neurone, Okadaic acid 200 nM, 1.5 hrs, read-out: IC50, inhibition of phosphorylation of Tau at S262
Method: The cell biochemical potency of the below described MARK inhibitors was evaluated by measuring their ability to block the phosphorylation of Tau at S262 in primary cell culture of rat cortical neurons induced by the action of Okadaic acid.
• 1. Store tissue at 4° C. (1-2 days) until ready to use. • 2. When ready to plate, make up 2 mL of enzymatic solution in Hibernate-Ca containing 1× papain. Filter sterile solution with 0.2 μm filter. • 3. Transfer 2 mL of medium from tissue tube into 15 mL falcon tube while not disturbing tissue. Save media. • 4. Add 2 mL enzymatic media (2) to tissue. Incubate for 30′ at 37° C. • 5. Remove enzymatic solution while not disturbing tissue. Add back 1 mL of media from (3). • 6. Using pipettor with sterile plastic tip, triturate ˜10 times until most of the cells are dispersed. • 7. Let undispersed pieces settle by gravity 1 minute. • 8. Transfer dispersed cells (supernatant) into 15 mL falcon tube containing 1 mL media from (3). Gently mix cells by swirling. • 9. Spin cells at 1,100 rpm for 1 minute. Remove supernatant. • 10. Flick tube to loosen cell pellet. Resuspend cells in 5 mL of NB. • 11. Transfer to new 50 mL falcon tube using 40 μm cell strainer. Rinse 15 mL falcon tube with 5 mL media, add to strainer. • 12. Count cells using hemacytometer. • 13. Dilute cells to 7,000 cells/100 μL/well in NB. • 14. Incubate cells at 37° C. with 5% CO2. • a. 4 DIV: Replace ½ volume (50 μL) NB per well. • b. 6 DIV: Neurite Assay. Tissue Culture/Compound Treatment
Primary rat cortical neurons plated @ 6Kcells/well in 384-well black/clear bottom Poly D-Lysine coated BD Falcon Biocoat plates. • Media: Neurobasal+1× B27+2 mM L-Glutamine (+10% FBS) at time of plating
Cells maintained at 37° C. and 5% CO2 for *6 days in culture, w/½ media change every 3-4 days.
Compound treatment: • Prepare first plate: 200× compound in 100% DMSO with subsequent 3 fold serial dilution • Prepare intermediate plate: 1:40 dilution of 200× compound in media (2.5% DMSO) • Add 5× compound to cell in media at 1:5 dilution (0.5% final DMSO) • Incubate for 30 min. at 37° C.
Okadaic Acid (OA) Treatment: • Dilute OA stock (240 μM in 100% DMSO) to 6× final concentration in media (0.5% DMSO) • Add 6× OA to cells at 1:6 dilution (200 nM final). Incubate for 1.5 hrs. at 37° C. Fix and Immunostaining
Fix: 1% PFA, diluted in PBS • Wash 1× with PBS, residual 30 μl/well.
Add 30 μL/well warmed 2% PFA and incubate 30 min. at RT (1% PFA final)
Wash 3× with PBS, 300/well residual […]

[2] = target: recombinant MARK3 enzyme (Homo sapiens (Human), UniProt P27448); test: MARK 3 Assay (HTRF, Cdc25C biotinylated peptide substrate); type: biochemical; conditions: MARK3, 10 μM ATP, 1 μM peptide substrate, 2 hours at 25° C.
Method: MARK3 activity was assayed in vitro using a Cdc25C biotinylated peptide substrate (Cell Signalling Technologies). The phosphopeptide product was quantitated using a Homogenous Time-Resolved Fluorescence (HTRF) assay system (Park et al., 1999, Anal. Biochem. 269:94-104). The reaction mixture contained 50 mM HEPES/Tris-HCl, pH 7.4; […], 5 mM MgCl2, 0.2 mM NaVO4, 5 mM 3-glycerol phosphate, 0.1% Tween-20, 2 mM dithiothreitol, 0.1% BSA, 10 μM ATP, 1 μM peptide substrate, and 10 nM recombinant MARK3 enzyme (University of Dundee) in a final volume of 12 μL. The buffer additionally contained protease inhibitor cocktail (Roche EDTA-free, 1 tab per 50 ml). The kinase reaction was incubated for 2 hours at 25° C., and then terminated with 3 μl Stop/Detection Buffer (50 mM HEPES, pH 7.0, 16.6 mM EDTA, 0.5M KF, 0.1% Tween-20, 0.1% BSA, 2 μg/ml SLX^ent 665 (CISBIO), and 2 μg/mL Eu^3+ cryptate label antibody (CISBIO)). The reaction was allowed to equilibrate overnight at 0° C., and relative fluorescent units were read on an HTRF enabled plate reader (e.g. TECAN GENios Pro).
Inhibitor compounds were assayed in the reaction described above to determine compound IC50s. Aliquots of compound dissolved in DMSO were added to the reaction wells in a third-log dilution series covering a range of 1 nM to 10 μM. Relative phospho substrate formation, read as HTRF fluorescence units, was measured over the range of compound concentrations and a titration curve generated.

Sequence of recombinant MARK3 enzyme (P27448 whole entry, species assumed): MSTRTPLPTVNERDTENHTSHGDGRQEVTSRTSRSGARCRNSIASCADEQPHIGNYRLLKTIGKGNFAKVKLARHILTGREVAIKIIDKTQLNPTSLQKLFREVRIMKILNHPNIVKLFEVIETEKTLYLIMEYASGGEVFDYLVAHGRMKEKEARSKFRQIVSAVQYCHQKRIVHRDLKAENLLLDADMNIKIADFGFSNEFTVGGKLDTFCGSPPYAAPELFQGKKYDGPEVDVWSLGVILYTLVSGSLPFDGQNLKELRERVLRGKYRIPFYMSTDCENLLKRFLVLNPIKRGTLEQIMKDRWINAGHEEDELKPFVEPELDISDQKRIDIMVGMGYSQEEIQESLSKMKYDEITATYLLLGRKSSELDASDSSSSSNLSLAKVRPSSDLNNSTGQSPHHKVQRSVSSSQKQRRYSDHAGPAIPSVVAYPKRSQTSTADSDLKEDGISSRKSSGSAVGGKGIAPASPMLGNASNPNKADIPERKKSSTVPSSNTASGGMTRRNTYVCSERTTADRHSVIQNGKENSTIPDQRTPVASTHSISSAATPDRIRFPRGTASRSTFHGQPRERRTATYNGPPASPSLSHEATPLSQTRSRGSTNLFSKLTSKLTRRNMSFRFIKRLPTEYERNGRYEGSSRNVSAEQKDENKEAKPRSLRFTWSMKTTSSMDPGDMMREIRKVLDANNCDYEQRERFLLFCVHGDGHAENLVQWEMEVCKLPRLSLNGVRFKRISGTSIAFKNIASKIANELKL

SMILES	IC50 [2]	IC50 [1]
Cc1sc(C(=O)N[C@H]2CCS(=O)(=O)C[C@H]2N)cc1-c1cnc2cccnn12 (relative stereo) [Example 10, N-[cis-3-amino-1,1-dioxidotetrahydro-2H-thiopyran-4-yl]-4-(imidazo[1,2-b]pyridazin-3-yl)-5-methylthiophene-2-carboxamide]	–	> 10000 nM
Cc1sc(C(=O)NC2CS(=O)(=O)CC[C@H]2N)cc1-c1cnc2cccnn12 (stereo partly drawn) [Example 9]	–	> 10000 nM
Cc1sc(C(=O)N[C@@H]2[C@H](N)CCCC2(F)F)cc1-c1cnc2ccccn12 [Example 15, N-[(1R,6R)-6-amino-2,2-difluorocyclohexyl]-4-(imidazo[1,2-a]pyridin-3-yl)-5-methylthiophene-2-carboxamide]	–	> 10000 nM
N[C@@H]1CCCC(F)(F)[C@@H]1NC(=O)c1cc(-c2cnc3cccnn23)c(Cc2ccccc2)s1 [Example 19, N-[(1R,6R)-6-amino-2,2-difluorocyclohexyl]-5-benzyl-4-(imidazo[1,2-b]pyridazin-3-yl)thiophene-2-carboxamide]	–	> 10000 nM

Continued, in another order:

IC50 [2]	SMILES	IC50 [1]
20 nM	Cc1sc(C(=O)N[C@@H]2[C@H](N)CCCC2(F)F)cc1-c1cnc2cccnn12 [Example 1, N-[(1R,6R)-6-Amino-2,2-difluorocyclohexyl]-4-(imidazo[1,2-b]pyridazin-3-yl)-5-methylthiophene-2-carboxamide]	–
0.5 nM	N[C@@H]1CCCC(F)(F)[C@@H]1NC(=O)c1cc(-c2cnc3cc(-c4ccc(F)cc4)cnn23)cs1 [Example 8, (1R,2R)-3,3-difluoro-2-[({4-[7-(4-fluorophenyl)imidazo[1,2-b]pyridazin-3-yl]thiophen-2-yl}carbonyl)amino]cyclohex-anaminium trifluoroacetate]	–
15 nM	N[C@H]1CCCC(F)(F)[C@@H]1NC(=O)c1cc(-c2cnc3ccccn23)cs1 [Example 14, N-[(1R,6S)-6-amino-2,2-difluorocyclohexyl]-4-(imidazo[1,2-a]pyridin-3-yl)thiophene-2-carboxamide]	–
140 nM	CCc1sc(C(=O)N[C@@H]2[C@H](N)CCCC2(F)F)cc1-c1cnc2cc(C(F)(F)F)cnn12 [Example 24, N-[(1R,6R)-6-amino-2,2-difluorocyclohexyl]-5-ethyl-4-[7-(trifluoromethyl)imidazo[1,2-b]pyridazin-3-yl]thiophene-2-carboxamide]	–
720 nM	N[C@H]1CCCC(F)(F)[C@@H]1NC(=O)c1nc(-c2cnc3ccccn23)c(Cl)s1 [Example 29, N-[(1R,6S)-6-Amino-2,2-difluorocyclohexyl]-5-chloro-4-(imidazo[1,2-a]pyridin-3-yl)-1,3-thiazole-2-carboxamide]	–

Reference: patent US8592425B2, “Imidazo[1,2-a]pyridines and imidazo[1,2-b]pyridazines as mark inhibitors” (Merck Sharp & Dohme Corp., priority 2009, dated 2013)
